We go through seven compounds from article PMC10854695, “Using Flavonoid Substitution Status to Predict Anticancer Effects in Human Melanoma Cancers: An In Vitro Study” (Cancers, 2024).

Where two headings read alike, the source gives them in different places.

Data set [1] concerns A375 melanoma cells. Nature of the data set: Neutral red uptake (NRU) assay, A375. To be noted: read-out: IC50, cytotoxic activity, NRU assay.
Protocol: (§1) The NRU (neutral red uptake) was conducted as previously described by Szoka and co-workers, with some modifications [22]. Briefly, melanoma cells and fibroblasts were seeded in microplates at the density of 1 × 10^4 cells per well and allowed to adhere for 24 h. […] After treatment, the culture medium was replaced with a neutral red solution (40 µg/mL). An additional 2 h of incubation was performed. The neutral red solution was then removed and the neutral red accumulated in the cells was dissolved in 50% EtOH with 1% of the glacial acetic acid. The absorbance was estimated at 540 nm and IC50 values were calculated using GraphPad Prism software (GraphPad Software, San Diego, CA, USA).
The subject of data set [2] is human skin fibroblasts (CCD25Sk). In words: Neutral red uptake (NRU) assay, normal cells. The note with it: read-out: IC50, cytotoxic activity, NRU assay, Normal cells (fibroblasts).
The test system of data set [3] is A375 melanoma cells.
For data set [4], the system named is C32 melanoma cells. Nature of the data set: Neutral red uptake (NRU) assay, C32.
Data set [5] concerns C32 melanoma cells.
Protocol: (§2) The MTT colorimetric assay was performed as a preliminary evaluation of the cytotoxicity of the selected flavonoids according to the method described and validated by Strawa et al. [21]. Briefly, melanoma cells and fibroblasts were seeded in 96-well microplates at a density of 1 × 10^4 cells per well. Fibroblasts were used as a control cell line in order to assess the selectivity of the compounds. […] Subsequently, the cells were washed with PBS, incubated with MTT solution for 2 h, and lysed with dimethyl sulfoxide (DMSO) supplemented with 1% (v/v) Sorensen’s glycine buffer. The absorbance was measured using a microplate reader (EPOCH 2, BioTek, Winooski, VT, USA) at a wavelength of 570 nm. The compounds were used at a final DMSO concentration of no more than 0.1% (v/v) in each well. The results were generated from at least three independent experiments. […] The IC50 values were calculated with GraphPad Prism 9 software (GraphPad Software, San Diego, CA, USA).
Data set [6] has as its system human skin fibroblasts (CCD25Sk).
Protocol: as §2
The subject of data set [7] is A375 melanoma cells. The source holds these as a separate data set.
Protocol: as §1
Data set [8] has as its system C32 melanoma cells. This is another data set of the same source.
The subject of data set [9] is human skin fibroblasts (CCD25Sk). The source holds these as a separate data set.
For data set [10], the system named is A375 melanoma cells. Nature of the data set: MTT cell viability assay, A375.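 Note: Read-out is formazan absorbance at 570 nm after 2 h with MTT, with compounds in at most 0.1% v/v DMSO.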 A general note: Formazan colour is commonly taken as a measure of viable cells.
Data set [11] deals with caspases, PARP, phospho-RSK in A375 cells. In words: Western immunoblot of apoptosis mediators and RSK, A375. The format is cell-based, human. The note with it: A375, 48 h, Western blot. Background: Immunoblotting shows a protein as a band on a membrane.
Protocol: (§3) Floating cells were harvested by centrifugation of the conditioned media (300× g, 5 min). Cell pellet and adherent cells were lysed in a cell lysis buffer supplemented with inhibitors of proteases and phosphatases. The cell lysate was sonicated (2 × 10 s) on ice with an ultrasonic homogenizer (UP200S, Hielscher Ultrasonics GmbH, Teltow, Germany) and centrifuged for 10 min at 10,000× g. The supernatant was collected and stored in a freezer at −70 °C. Protein concentrations in the cell supernatants were determined using a Lowry assay. Obtained proteins were dissolved on SDS-PAGE gels (7.5%, 10%, or 12%) using the Mini-Protean Tetra system. The proteins were transferred to nitrocellulose membranes using the Mini Trans-Blot Cell wet blotting system. The 5% skim milk was used to block membranes. Then, membranes were probed for 24 h at 4 °C with the following antibodies: anti-phospho-RSK, anti-RSK, anti-PARP, anti-cleaved PARP, anti-caspase-8, anti-caspase-9, anti-caspase-7, anti-caspase-3, and anti-actin. Membranes were incubated with an ECL-HRP (enhanced chemiluminescence-horseradish peroxidase) substrate, and the signal was spotted using the BioSpectrum Imaging System and VisionWorks LS software 7.0 (Ultra-Violet Products, Ltd., San Gabriel, CA, USA). The intensity of the bands was quantified by densitometric analysis using UVIBand software, version 15.08d (Uvitec Ltd., Cambridge, UK).
Data set [12] concerns A375 melanoma cells. In words: [3H]-thymidine incorporation (DNA biosynthesis), A375. The format is cell-based, human. The note with it: read-out: IC50, effect on DNA biosynthesis ([3H]-thymidine incorporation).
Protocol: (§4) The inhibition of DNA biosynthesis was evaluated using [^3H]-thymidine incorporation into the DNA of melanoma cells (C32, A375) and fibroblasts treated with the studied compounds [21]. The cells were briefly seeded in 24-well plates (1 × 10^5 cells per well) and allowed to adhere for 24 h. […] After incubation for 24, 48, and 72 h, the cells were rinsed three times with PBS. Then, cells were lysed in 1 mL of 0.1 M NaOH containing 1% SDS. The cell lysate was moved into scintillation vials containing scintillation liquid, and the radioactivity of the samples was measured using a liquid scintillation analyzer (Perkin-Elmer, Waltham, MA, USA).
The nature of data set [13]: Neutral red uptake (NRU) assay, normal cells. To be noted: human, human skin fibroblasts (CCD25Sk).
Data set [14] concerns C32 melanoma cells. In words: [3H]-thymidine incorporation (DNA biosynthesis), C32. The format is cell-based, human. The note with it: read-out: IC50, effect on DNA biosynthesis ([3H]-thymidine incorporation). (Uptake of a labelled nucleoside into DNA is a usual measure of proliferation.)
Protocol: as §4
Data set [15] concerns A375 melanoma cells. In words: Apoptosis assay, annexin V/PI flow cytometry, A375. The format is cell-based, human. To be noted: A375, 25 µM, 48 h.
Protocol: Firstly, cells were placed in 6-well plates at a density of 1 × 10^5 cells per well and allowed to adhere for 24 h. Then, cells were treated with 25 µM, 50 µM, and 100 μM of the selected flavonoids (1, 6, 15, 16, 17, 37) and incubated for 48 h. Floating and adherent cells were collected and assayed using the manufacturer’s protocol supported by the Dead Cell Apoptosis Kit for flow cytometry. Concisely, 100 μL of an annexin-binding buffer containing a 5 μL annexin V-FITC conjugate solution and 1 μg/mL PI (propidium iodide) was used to disperse the cells. After 15 min of incubation, an additional 400 μL of the mentioned buffer was added. The cells were analyzed with a DxFLEX flow cytometer (Beckman Coulter, Brea, CA, USA).
The subject of data set [16] is human skin fibroblasts (CCD25Sk). Nature of the data set: [3H]-thymidine incorporation (DNA biosynthesis), normal cells. The format is cell-based. The note with it: Homo sapiens, Skin fibroblast, read-out: IC50, effect on DNA biosynthesis ([3H]-thymidine incorporation).
Protocol: as §4
Data set [17] is described as follows: MTT cell viability assay, normal cells.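 Note: fibroblasts served as non-cancer comparison line for selectivity versus melanoma cells, MTT reduction read as absorbance at 570 nm after 2 h dye exposure, compounds in ≤0.1% DMSO.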 To be noted: human, human skin fibroblasts (CCD25Sk).
Protocol: as §2
Data set [18] relates to caspases, PARP, phospho-RSK in C32 cells. Nature of the data set: Western immunoblot of apoptosis mediators and RSK, C32. The format is cell-based, human. The note with it: C32, 48 h, Western blot.
Protocol: as §3
In data set [19] the test system is C32 melanoma cells. In words: MTT cell viability assay, C32.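 Note: MTT added for 2 h, cells lysed in DMSO, absorbance read at 570 nm, compound vehicle kept at or below 0.1% DMSO.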 The note with it: read-out: IC50, cytotoxic activity, MTT test.
Protocol: as §2
Data set [20] has as its system cleaved caspase-3 and cleaved caspase-7 in C32 cells. In words: Immunofluorescence of cleaved caspase-3/-7, C32. The format is cell-based, human. The note with it: C32, 48 h, immunofluorescent staining.
Protocol: Firstly, to examine fluorescent signals, cells were placed in the bottom of 96-well black plates at 1 × 10^4 cells per well and permitted to adhere for 24 h. […] After incubating and removing the medium, cells were fixed in 4% paraformaldehyde for 15 min. Later, cells were rinsed three times with PBS and permeabilized with 0.1% Triton X-100 for 5 min at room temperature. The 10% heat-inactivated goat serum in the PBS was used to block non-specific binding. Subsequently, cells were treated with the following antibodies overnight: anti-cleaved caspase 3 and anti-cleaved caspase-7. […] Cell nuclei were stained with Hoechst 33342 and F-actin was stained with Phalloidin-Atto 488. Fluorescent signals were captured using a BD Pathway 855 confocal microscope (Becton Dickinson, Franklin Lakes, NJ, USA). The mean fluorescence intensity was calculated using ImageJ software (National Institutes of Health, Bethesda, Rockville, MD, USA).
Data set [21] relates to human skin fibroblasts (CCD25Sk). In words: MTT cell viability assay, normal cells.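 Note: fibroblasts served as non-cancer comparison line for selectivity versus melanoma cells, MTT reduction read as absorbance at 570 nm after 2 h dye exposure, compounds in ≤0.1% DMSO.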 To be noted: read-out: IC50, cytotoxic activity, MTT test, Normal cells (fibroblasts).
Protocol: as §2
Where [22] appears, read: read-out: IC50, cytotoxic activity, NRU assay, C32, 24 h.
Setting [23] is: read-out: IC50, cytotoxic activity, NRU assay, C32, 48 h.
Where [24] appears, read: read-out: IC50, cytotoxic activity, NRU assay, C32, 72 h.

Regarding `CC(=O)Oc1ccc(-c2cc(=O)c3c(O)cc(O)c([C@@H]4OC[C@@H](O)[C@H](O)[C@H]4O[C@@H]4O[C@H](CO)[C@@H](O)[C@H](O)[C@H]4O)c3o2)cc1O` [Compound 10, 5,7,3′-trihydroxy-4′-acetoxy-flavone-8-C-xyloside-2″-O-glucoside], the IC50 in [1] (A375, 24 h) is more than 200 µM; in [1] (A375, 48 h), more than 200 µM; in data set [1] (A375, 72 h), more than 200 µM; in [2] (24 h) it was more than 200 µM; in data set [2] (48 h), more than 200 µM; in data set [2] (72 h) it was more than 200 µM. Also, the IC50 in data set [3], in data set [4] (setting [22]), in data set [4] (setting [23]), in [4] (setting [24]), in [5] and in data set [6] was more than 200 µM in each case.

In the case of `O=c1cc(-c2ccc(O)c(O)c2)oc2cc(OC3OC(CO)C(O)C(O)C3OC3OCC(O)C(O)C3O)cc(O)c12` (stereo not shown) [Compound 9, luteolin 7-O-sambubioside], the IC50 in [7], in data set [8], in data set [3], in data set [5], in [6] and in [9] was more than 200 µM in each case.

As to `COc1cc(-c2cc(=O)c3c(O)cc(O)c(C4OCC(O)C(O)C4OC4OC(CO)C(OC(C)=O)C(O)C4O)c3o2)ccc1OC(C)=O` (stereo not shown) [Compound 13, 5,7-dihydroxy-3′-methoxy-4′-acetoxyflavone-8-C-arabinoside-2″-O-(4‴-acetoxy)-glucoside], the IC50 in data set [7], in data set [8], in data set [3], in data set [5], in [6] and in data set [9] was more than 200 µM each time.

Regarding `COc1cc(-c2cc(=O)c3c(O)cc(O)c([C@@H]4OC[C@@H](O)[C@H](O)[C@H]4O[C@@H]4O[C@H](CO)[C@@H](OC(C)=O)[C@H](O)[C@H]4O)c3o2)ccc1OC(C)=O` [Compound 12, 5,7-dihydroxy-3′-methoxy-4′-acetoxyflavone-8-C-xyloside-2″-O-(4‴-acetoxy)-glucoside], the IC50 in data set [7], in data set [8], in data set [3], in [5], in data set [6] and in data set [9] was more than 200 µM in each case.

With `O=c1cc(-c2ccccc2)oc2ccc(O)c(O)c12` [Compound 15, 5,6-dihydroxyflavone], the IC50 in [1] (Homo sapiens, A-375, 24 h) is 53.3 ± 4.6 µM; in [1] (Homo sapiens, A-375, 48 h), 16 ± 1.1 µM; in [1] (Homo sapiens, A-375, 72 h) it was 13.6 ± 1.1 µM; in data set [10] (Homo sapiens, A-375, 24 h, read-out: IC50, cytotoxic activity, MTT test, A375, 24 h), 86 ± 6.3 µM; in data set [10] (Homo sapiens, A-375, 48 h, read-out: IC50, cytotoxic activity, MTT test, A375, 48 h), 36.4 ± 2 µM; in data set [10] (Homo sapiens, A-375, 72 h, read-out: IC50, cytotoxic activity, MTT test, A375, 72 h) it was 26.4 ± 1.2 µM. For the same compound, the IC50 is 32.4 ± 2.4 µM in [12] (A375, 48 h); more than 200 µM in data set [12] (Homo sapiens, A-375, A375, 24 h); 32.4 ± 0.49 µM in data set [12] (Homo sapiens, A-375, A375, 48 h); 31.4 ± 1.7 µM in data set [12] (Homo sapiens, A-375, A375, 72 h); 72.6 ± 5.5 µM in data set [4] (Homo sapiens, C32, 24 h, read-out: IC50, cytotoxic activity, NRU assay, C32, 24 h); 18.2 ± 2.1 µM in data set [4] (Homo sapiens, C32, 48 h, read-out: IC50, cytotoxic activity, NRU assay, C32, 48 h). Moreover, the IC50 in data set [4] (Homo sapiens, C32, 72 h, read-out: IC50, cytotoxic activity, NRU assay, C32, 72 h) is 15.4 ± 1.1 µM; in data set [14] (C32, 48 h), 20 ± 1.9 µM; in data set [14] (Homo sapiens, C32, C32, 24 h), more than 200 µM; in data set [14] (Homo sapiens, C32, C32, 48 h), 20.1 ± 0.98 µM; in data set [14] (Homo sapiens, C32, C32, 72 h), 20.3 ± 1.2 µM; in data set [16] (24 h), 175 ± 7.6 µM. The IC50 in [16] (48 h) was more than 200 µM; in data set [16] (72 h) it was more than 200 µM; in [19] (Homo sapiens, C32, 24 h) it was 100 to 200 µM; in data set [19] (Homo sapiens, C32, 48 h) it was 47.5 ± 3.5 µM; in [19] (Homo sapiens, C32, 72 h) it was 23.5 ± 1.9 µM. Besides, the “expression of cleaved caspase-8” value in [11] is reported as “increased”. In addition, the IC50 at 24 h in [13] and in data set [17] was more than 200 µM throughout. Moreover, the IC50 at 48 h in [13] was 100 to 200 µM; in data set [17], more than 200 µM. Also, the IC50 at 72 h in data set [13] is 100 to 200 µM; in data set [17], more than 200 µM. Moreover, the “level of early apoptotic cells” value in data set [15] is given as 42.0 ± 4.5%. Besides, in data set [15], the “level of late apoptotic cells” value stood at 8.9 ± 2.2%. Moreover, in data set [18], the “cleaved PARP and caspase-9” value is “generated cleaved PARP and caspase-9”. Also, the caspase-3 expression entry in [20] is on record as “notably extended”.

Consider `COc1ccc(-c2cc(=O)c3c(O)cc(O)c([C@@H]4OC[C@@H](O)[C@H](O)[C@H]4O[C@@H]4O[C@H](CO)[C@@H](O)[C@H](O)[C@H]4O)c3o2)cc1O` [Compound 11, 5,7,3′-trihydroxy-4′-methoxyflavone-8-C-xyloside-2″-O-glucoside], for which the IC50 in [1] (A375, 24 h) is more than 200 µM; in data set [1] (A375, 48 h), more than 200 µM; in data set [1] (A375, 72 h), more than 200 µM; in [2] (24 h) it was more than 200 µM; in [2] (48 h), more than 200 µM; in data set [2] (72 h) it was more than 200 µM. Moreover, the IC50 in data set [3], in data set [4] (setting [22]), in data set [4] (setting [23]), in data set [4] (setting [24]), in [5] and in [6] was more than 200 µM each time.

Take “kaempferol 3-O-galactoside [Compound 22]”: the IC50 was more than 200 µM in [1] (A375, 24 h); more than 200 µM in [1] (A375, 48 h); more than 200 µM in data set [1] (A375, 72 h); more than 200 µM in data set [10] (read-out: IC50, cytotoxic activity, MTT test, A375, 24 h); more than 200 µM in data set [10] (read-out: IC50, cytotoxic activity, MTT test, A375, 48 h); more than 200 µM in data set [10] (read-out: IC50, cytotoxic activity, MTT test, A375, 72 h). For the same compound, the IC50 in data set [2] (24 h), in data set [2] (48 h), in data set [2] (72 h), in data set [4] (setting [22]), in data set [4] (setting [23]) and in [4] (setting [24]) was more than 200 µM throughout. In addition, the IC50 in data set [21] (24 h) is more than 200 µM; in data set [21] (48 h), more than 200 µM; in data set [21] (72 h) it was more than 200 µM; in data set [19] (C32, 24 h), more than 200 µM; in data set [19] (C32, 48 h), more than 200 µM; in [19] (C32, 72 h), more than 200 µM.
